From BindingDB's records for PubMed 9864265 (Second Tokushima Institute of New Drug Research, 1998)

Key:
[1] = target: Vasopressin V2 receptor (Rattus norvegicus, UniProt Q00788)
[2] = target: T1, Vasopressin V1b receptor (Homo sapiens, UniProt P47901)
T1 sequence (P47901 whole entry): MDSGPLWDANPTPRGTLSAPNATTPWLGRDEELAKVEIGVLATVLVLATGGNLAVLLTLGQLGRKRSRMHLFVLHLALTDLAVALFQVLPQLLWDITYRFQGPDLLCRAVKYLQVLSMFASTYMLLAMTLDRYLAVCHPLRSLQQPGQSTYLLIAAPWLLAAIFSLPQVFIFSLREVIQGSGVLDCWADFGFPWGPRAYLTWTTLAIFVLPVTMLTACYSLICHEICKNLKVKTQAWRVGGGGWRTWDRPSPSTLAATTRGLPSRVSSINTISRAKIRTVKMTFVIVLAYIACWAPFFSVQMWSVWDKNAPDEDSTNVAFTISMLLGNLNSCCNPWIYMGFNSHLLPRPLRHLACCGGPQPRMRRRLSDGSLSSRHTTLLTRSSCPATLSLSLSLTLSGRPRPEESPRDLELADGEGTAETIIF

[3] = target: Vasopressin V1a receptor (Rattus norvegicus, UniProt P30560)
Sequence of Vasopressin V1a receptor (P30560 whole entry): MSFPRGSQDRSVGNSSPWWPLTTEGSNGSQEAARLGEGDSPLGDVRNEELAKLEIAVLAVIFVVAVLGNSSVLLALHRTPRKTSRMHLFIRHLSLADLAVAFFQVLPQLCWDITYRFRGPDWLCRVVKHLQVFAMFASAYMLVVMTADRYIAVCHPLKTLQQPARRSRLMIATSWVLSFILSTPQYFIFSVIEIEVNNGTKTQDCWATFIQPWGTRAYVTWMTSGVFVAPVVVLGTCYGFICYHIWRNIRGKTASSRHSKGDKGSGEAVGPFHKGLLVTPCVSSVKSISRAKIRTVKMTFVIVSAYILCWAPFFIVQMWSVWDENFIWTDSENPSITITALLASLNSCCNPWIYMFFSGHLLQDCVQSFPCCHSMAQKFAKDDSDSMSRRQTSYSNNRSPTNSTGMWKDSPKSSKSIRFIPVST

Sequence of Vasopressin V2 receptor (Q00788 whole entry): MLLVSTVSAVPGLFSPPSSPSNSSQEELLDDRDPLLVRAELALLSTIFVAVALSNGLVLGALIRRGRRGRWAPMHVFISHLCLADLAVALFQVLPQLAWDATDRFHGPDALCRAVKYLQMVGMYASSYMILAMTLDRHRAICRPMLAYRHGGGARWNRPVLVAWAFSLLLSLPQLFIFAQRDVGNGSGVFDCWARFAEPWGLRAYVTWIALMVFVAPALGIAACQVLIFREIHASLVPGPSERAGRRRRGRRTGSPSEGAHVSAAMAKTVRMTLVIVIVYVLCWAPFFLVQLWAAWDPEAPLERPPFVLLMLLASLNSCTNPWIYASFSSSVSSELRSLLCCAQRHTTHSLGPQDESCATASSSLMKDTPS

Row | Ki [1] [nM] | Ki [2] [nM] | Ki [3] [nM] | SMILES
1 | 1.33 | > 10000 | 325 | Cc1ccccc1C(=O)Nc1ccc(C(=O)N2CCCC(O)c3cc(Cl)ccc32)c(C)c1 (stereo not given)
2 | – | > 10000 | 524 | Cc1ccccc1C(=O)Nc1ccc(C(=O)N2CCCC(N(C)C)c3ccccc32)cc1 (stereo not given)
